Laboratory results reported in ChEMBL document CHEMBL3045426, “Synthesis, Antiviral and Antibacterial Activities of Isatin Mannich Bases” (Med Chem Res, 2005).
Values after ≈ are worked out from the molar mass of the structure shown.

System: not listed separately
Assay: Selectivity index, ratio of CC50 for human MT4 cells to EC50 for HIV1 3B infected in MT4 cells
Assay type: toxicity, cell-based
Conditions: read-out: Ratio CC50/EC50

| Structure (SMILES) | selectivity ratio |
| --- | --- |
| CCCCN(CCCC)CN1C(=O)/C(=N\c2ncc(Cc3cc(OC)c(OC)c(OC)c3)c(N)n2)c2cc(Cl)ccc21 | 3 |

System: Vibrio cholerae
Assay: Antimicrobial activity against Vibrio cholerae 01 after 18 to 20 hr by agar dilution method
Assay type: functional
Conditions: 1

| Structure (SMILES) | MIC |
| --- | --- |
| CCCCN(CCCC)CN1C(=O)/C(=N\c2ncc(Cc3cc(OC)c(OC)c(OC)c3)c(N)n2)c2cc(Cl)ccc21 | 0.61 µg/mL (≈ 1.03 µM) |

System: Priestia megaterium
Assay: Antimicrobial activity against Bacillus megaterium after 18 to 20 hr by agar dilution method
Assay type: functional
Conditions: not given

| Structure (SMILES) | MIC |
| --- | --- |
| CCCCN(CCCC)CN1C(=O)/C(=N\c2ncc(Cc3cc(OC)c(OC)c(OC)c3)c(N)n2)c2cc(Cl)ccc21 | 1250 µg/mL (≈ 2100 µM) |

System: Enterobacter
Assay: Antimicrobial activity against Enterobacter after 18 to 20 hr by agar dilution method
Assay type: functional
Conditions: not given

| Structure (SMILES) | MIC |
| --- | --- |
| CCCCN(CCCC)CN1C(=O)/C(=N\c2ncc(Cc3cc(OC)c(OC)c(OC)c3)c(N)n2)c2cc(Cl)ccc21 | 1250 µg/mL (≈ 2100 µM) |

System: Citrobacter freundii
Assay: Antimicrobial activity against Citrobacter freundii after 18 to 20 hr by agar dilution method
Assay type: functional
Conditions: not given

| Structure (SMILES) | MIC |
| --- | --- |
| CCCCN(CCCC)CN1C(=O)/C(=N\c2ncc(Cc3cc(OC)c(OC)c(OC)c3)c(N)n2)c2cc(Cl)ccc21 | 1250 µg/mL (≈ 2100 µM) |

System: Salmonella enteritidis
Assay: Antimicrobial activity against Salmonella enterica subsp. enterica serovar Enteritidis after 18 to 20 hr by agar dilution method
Assay type: functional
Conditions: not given

| Structure (SMILES) | MIC |
| --- | --- |
| CCCCN(CCCC)CN1C(=O)/C(=N\c2ncc(Cc3cc(OC)c(OC)c(OC)c3)c(N)n2)c2cc(Cl)ccc21 | 625 µg/mL (≈ 1050 µM) |

System: Salmonella typhimurium
Assay: Antimicrobial activity against Salmonella enterica subsp. enterica serovar Typhimurium after 18 to 20 hr by agar dilution method
Assay type: functional
Conditions: not given

| Structure (SMILES) | MIC |
| --- | --- |
| CCCCN(CCCC)CN1C(=O)/C(=N\c2ncc(Cc3cc(OC)c(OC)c(OC)c3)c(N)n2)c2cc(Cl)ccc21 | 1250 µg/mL (≈ 2100 µM) |

System: Proteus mirabilis
Assay: Antimicrobial activity against Proteus mirabilis after 18 to 20 hr by agar dilution method
Assay type: functional
Conditions: not given

| Structure (SMILES) | MIC |
| --- | --- |
| CCCCN(CCCC)CN1C(=O)/C(=N\c2ncc(Cc3cc(OC)c(OC)c(OC)c3)c(N)n2)c2cc(Cl)ccc21 | 1250 µg/mL (≈ 2100 µM) |

System: Proteus vulgaris
Assay: Antimicrobial activity against Proteus vulgaris after 18 to 20 hr by agar dilution method
Assay type: functional
Conditions: not given

| Structure (SMILES) | MIC |
| --- | --- |
| CCCCN(CCCC)CN1C(=O)/C(=N\c2ncc(Cc3cc(OC)c(OC)c(OC)c3)c(N)n2)c2cc(Cl)ccc21 | 1250 µg/mL (≈ 2100 µM) |

System: Edwardsiella tarda
Assay: Antimicrobial activity against Edwardsiella tarda after 18 to 20 hr by agar dilution method
Assay type: functional
Conditions: not given

| Structure (SMILES) | MIC |
| --- | --- |
| CCCCN(CCCC)CN1C(=O)/C(=N\c2ncc(Cc3cc(OC)c(OC)c(OC)c3)c(N)n2)c2cc(Cl)ccc21 | 1250 µg/mL (≈ 2100 µM) |

System: Escherichia coli
Assay: Antimicrobial activity against Escherichia coli NCTC 10418 after 18 to 20 hr by agar dilution method
Assay type: functional
Conditions: not given

| Structure (SMILES) | MIC |
| --- | --- |
| CCCCN(CCCC)CN1C(=O)/C(=N\c2ncc(Cc3cc(OC)c(OC)c(OC)c3)c(N)n2)c2cc(Cl)ccc21 | 1250 µg/mL (≈ 2100 µM) |

System: Salmonella typhi
Assay: Antimicrobial activity against Salmonella enterica subsp. enterica serovar Typhi after 18 to 20 hr by agar dilution method
Assay type: functional
Conditions: not given

| Structure (SMILES) | MIC |
| --- | --- |
| CCCCN(CCCC)CN1C(=O)/C(=N\c2ncc(Cc3cc(OC)c(OC)c(OC)c3)c(N)n2)c2cc(Cl)ccc21 | 1250 µg/mL (≈ 2100 µM) |

System: Salmonella paratyphi
Assay: Antimicrobial activity against Salmonella enterica subsp. enterica serovar Paratyphi A after 18 to 20 hr by agar dilution method
Assay type: functional
Conditions: not given

| Structure (SMILES) | MIC |
| --- | --- |
| CCCCN(CCCC)CN1C(=O)/C(=N\c2ncc(Cc3cc(OC)c(OC)c(OC)c3)c(N)n2)c2cc(Cl)ccc21 | 625 µg/mL (≈ 1050 µM) |

System: Vibrio parahaemolyticus
Assay: Antimicrobial activity against Vibrio parahaemolyticus after 18 to 20 hr by agar dilution method
Assay type: functional
Conditions: not given

| Structure (SMILES) | MIC |
| --- | --- |
| CCCCN(CCCC)CN1C(=O)/C(=N\c2ncc(Cc3cc(OC)c(OC)c(OC)c3)c(N)n2)c2cc(Cl)ccc21 | 19.5 µg/mL (≈ 32.8 µM) |

System: Vibrio cholerae
Assay: Antimicrobial activity against Vibrio cholerae 0139 after 18 to 20 hr by agar dilution method
Assay type: functional
Conditions: 139

| Structure (SMILES) | MIC |
| --- | --- |
| CCCCN(CCCC)CN1C(=O)/C(=N\c2ncc(Cc3cc(OC)c(OC)c(OC)c3)c(N)n2)c2cc(Cl)ccc21 | 625 µg/mL (≈ 1050 µM) |

System: Vibrio fluvialis
Assay: Antimicrobial activity against Vibrio fluvialis after 18 to 20 hr by agar dilution method
Assay type: functional
Conditions: not given

| Structure (SMILES) | MIC |
| --- | --- |
| CCCCN(CCCC)CN1C(=O)/C(=N\c2ncc(Cc3cc(OC)c(OC)c(OC)c3)c(N)n2)c2cc(Cl)ccc21 | 1250 µg/mL (≈ 2100 µM) |

System: Vibrio mimicus
Assay: Antimicrobial activity against Vibrio mimicus after 18 to 20 hr by agar dilution method
Assay type: functional
Conditions: not given

| Structure (SMILES) | MIC |
| --- | --- |
| CCCCN(CCCC)CN1C(=O)/C(=N\c2ncc(Cc3cc(OC)c(OC)c(OC)c3)c(N)n2)c2cc(Cl)ccc21 | 4.88 µg/mL (≈ 8.2 µM) |

System: Pseudomonas aeruginosa
Assay: Antimicrobial activity against Pseudomonas aeruginosa after 18 to 20 hr by agar dilution method
Assay type: functional
Conditions: not given

| Structure (SMILES) | MIC |
| --- | --- |
| CCCCN(CCCC)CN1C(=O)/C(=N\c2ncc(Cc3cc(OC)c(OC)c(OC)c3)c(N)n2)c2cc(Cl)ccc21 | 2500 µg/mL (≈ 4200 µM) |

System: Staphylococcus aureus
Assay: Antimicrobial activity against Staphylococcus aureus after 18 to 20 hr by agar dilution method
Assay type: functional
Conditions: not given

| Structure (SMILES) | MIC |
| --- | --- |
| CCCCN(CCCC)CN1C(=O)/C(=N\c2ncc(Cc3cc(OC)c(OC)c(OC)c3)c(N)n2)c2cc(Cl)ccc21 | 1250 µg/mL (≈ 2100 µM) |

System: Morganella morganii
Assay: Antimicrobial activity against Morganella morganii after 18 to 20 hr by agar dilution method
Assay type: functional
Conditions: not given

| Structure (SMILES) | MIC |
| --- | --- |
| CCCCN(CCCC)CN1C(=O)/C(=N\c2ncc(Cc3cc(OC)c(OC)c(OC)c3)c(N)n2)c2cc(Cl)ccc21 | 625 µg/mL (≈ 1050 µM) |

System: Shigella boydii
Assay: Antimicrobial activity against Shigella boydii after 18 to 20 hr by agar dilution method
Assay type: functional
Conditions: not given

| Structure (SMILES) | MIC |
| --- | --- |
| CCCCN(CCCC)CN1C(=O)/C(=N\c2ncc(Cc3cc(OC)c(OC)c(OC)c3)c(N)n2)c2cc(Cl)ccc21 | 39.1 µg/mL (≈ 65.6 µM) |

System: Plesiomonas
Assay: Antimicrobial activity against Plesiomonas after 18 to 20 hr by agar dilution method
Assay type: functional
Conditions: not given

| Structure (SMILES) | MIC |
| --- | --- |
| CCCCN(CCCC)CN1C(=O)/C(=N\c2ncc(Cc3cc(OC)c(OC)c(OC)c3)c(N)n2)c2cc(Cl)ccc21 | 39.1 µg/mL (≈ 65.6 µM) |

System: Shigella sonnei
Assay: Antimicrobial activity against Shigella sonnei after 18 to 20 hr by agar dilution method
Assay type: functional
Conditions: not given

| Structure (SMILES) | MIC |
| --- | --- |
| CCCCN(CCCC)CN1C(=O)/C(=N\c2ncc(Cc3cc(OC)c(OC)c(OC)c3)c(N)n2)c2cc(Cl)ccc21 | 1250 µg/mL (≈ 2100 µM) |

System: Klebsiella pneumoniae
Assay: Antimicrobial activity against Klebsiella pneumoniae after 18 to 20 hr by agar dilution method
Assay type: functional
Conditions: not given

| Structure (SMILES) | MIC |
| --- | --- |
| CCCCN(CCCC)CN1C(=O)/C(=N\c2ncc(Cc3cc(OC)c(OC)c(OC)c3)c(N)n2)c2cc(Cl)ccc21 | 1250 µg/mL (≈ 2100 µM) |

System: Klebsiella pneumoniae
Assay: Antimicrobial activity against Klebsiella pneumoniae subsp. ozaenae after 18 to 20 hr by agar dilution method
Assay type: functional
Conditions: not given

| Structure (SMILES) | MIC |
| --- | --- |
| CCCCN(CCCC)CN1C(=O)/C(=N\c2ncc(Cc3cc(OC)c(OC)c(OC)c3)c(N)n2)c2cc(Cl)ccc21 | 1250 µg/mL (≈ 2100 µM) |

System: Mycobacterium tuberculosis
Assay: Antimycobacterial activity against Mycobacterium tuberculosis H37Rv ATCC 27294 at 6.25 ug/ml by MABA
Assay type: functional
Conditions: not given

| Structure (SMILES) | inhibition at 6.25 µg/mL |
| --- | --- |
| CCCCN(CCCC)CN1C(=O)/C(=N\c2ncc(Cc3cc(OC)c(OC)c(OC)c3)c(N)n2)c2cc(Cl)ccc21 | 67% |

System: not listed separately
Assay: Cytotoxicity against Homo sapiens (human) HuH7 cells assessed as cell growth at 50 ug/ml after 3 days by Neutral red assay
Assay type: cell-based, Huh-7
Conditions: read-out: Activity

| Structure (SMILES) | viability at 72 h, 50 ug/ml |
| --- | --- |
| CCCCN(CCCC)CN1C(=O)/C(=N\c2ncc(Cc3cc(OC)c(OC)c(OC)c3)c(N)n2)c2cc(Cl)ccc21 | 48% |

System: not listed separately
Assay: Cytotoxicity against Homo sapiens (human) MT4 cells after 5 days by MTT assay
Assay type: cell-based
Conditions: not given

| Structure (SMILES) | CC50 at 120 h |
| --- | --- |
| CCCCN(CCCC)CN1C(=O)/C(=N\c2ncc(Cc3cc(OC)c(OC)c(OC)c3)c(N)n2)c2cc(Cl)ccc21 | 62.6 µg/mL (≈ 105 µM) |

System: Human immunodeficiency virus 1
Assay: Antiviral activity against Human immunodeficiency virus 1 IIIB infected MT4 cells assessed as inhibition of virus-induced cytopathicity after 5 days by MTT assay
Assay type: functional, organism-based
Conditions: MT4, 120 h

| Structure (SMILES) | EC50 |
| --- | --- |
| CCCCN(CCCC)CN1C(=O)/C(=N\c2ncc(Cc3cc(OC)c(OC)c(OC)c3)c(N)n2)c2cc(Cl)ccc21 | 16.1 µg/mL (≈ 27.1 µM) |

System: Hepatitis C virus
Assay: Antiviral activity against Hepatitis C virus BM4-5 infected in Huh7 cells assessed as inhibition of viral RNA replication by phosphor screening method
Assay type: functional, Hepacivirus hominis, Huh-7
Conditions: not given

| Structure (SMILES) | inhibition (INH) |
| --- | --- |
| CCCCN(CCCC)CN1C(=O)/C(=N\c2ncc(Cc3cc(OC)c(OC)c(OC)c3)c(N)n2)c2cc(Cl)ccc21 | 84% |

System: Human immunodeficiency virus 1
Assay: Antiviral activity against Human immunodeficiency virus 1 IIIB infected MT4 cells assessed as protection against viral infection after 5 days by MTT assay
Assay type: functional
Set-up: concentration or dose not given beside the values
Conditions: not given

| Structure (SMILES) | Activity |
| --- | --- |
| CCCCN(CCCC)CN1C(=O)/C(=N\c2ncc(Cc3cc(OC)c(OC)c(OC)c3)c(N)n2)c2cc(Cl)ccc21 | 73.2% |
